Values quoted from earlier work, collected in US20250099385A1, “Extended Release Boswellic Acid and Manufacturing Thereof” (Lonza Greenwood LLC, priority 2022, published 2025).
Entries after “also recorded” stand apart in the source; their conditions may differ.

Tests used:
[1] = not given; remark: listed apart in the source
5-lipoxygenase = target: T1, 5-lipoxygenase (Homo sapiens, UniProt P09917)
T1 sequence (P09917 1-674): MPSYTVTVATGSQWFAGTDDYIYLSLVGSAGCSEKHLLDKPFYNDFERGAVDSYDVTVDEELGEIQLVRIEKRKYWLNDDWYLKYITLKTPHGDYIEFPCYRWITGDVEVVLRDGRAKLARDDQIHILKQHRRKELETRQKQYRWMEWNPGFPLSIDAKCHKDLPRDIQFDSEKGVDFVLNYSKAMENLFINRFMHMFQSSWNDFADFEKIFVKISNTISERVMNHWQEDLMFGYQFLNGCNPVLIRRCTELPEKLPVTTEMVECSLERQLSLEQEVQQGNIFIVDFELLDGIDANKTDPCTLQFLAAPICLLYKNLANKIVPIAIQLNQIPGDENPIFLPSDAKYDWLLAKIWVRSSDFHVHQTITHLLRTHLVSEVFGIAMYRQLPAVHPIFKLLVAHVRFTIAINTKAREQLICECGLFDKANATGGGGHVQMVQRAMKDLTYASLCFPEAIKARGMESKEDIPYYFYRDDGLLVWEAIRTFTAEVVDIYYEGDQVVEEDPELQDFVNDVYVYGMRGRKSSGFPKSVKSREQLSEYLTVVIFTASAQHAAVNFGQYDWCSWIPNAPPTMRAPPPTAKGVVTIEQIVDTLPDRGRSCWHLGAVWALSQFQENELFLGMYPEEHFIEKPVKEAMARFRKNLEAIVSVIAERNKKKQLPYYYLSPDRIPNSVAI

## 3-O-acetyl-11-keto-.beta.-boswellic acid [AKBA]
After oral consumption
  time at which AKBA levels in the blood peak: ~3 h
Beyond 10 hours from oral consumption
  AKBA levels in the blood beyond 10 hours: nearly zero concentration; also recorded: almost zero concentrations
In vivo
  bioavailability: poorly bioavailable
[1]
  water solubility: highly water-insoluble
5-lipoxygenase
  5-lipoxygenase inhibition, rank among the boswellic acids: most potent inhibitor
